Reference: US20250277001A1, “PEPTIDE DERIVATIVES AND RELATED USES AS OREXIN AGONISTS” (CENTESSA PHARMACEUTICALS (UK) LIMITED, priority 2022, published 2025)
Where two headings read alike, the source gives them in different places. Where a SMILES comes first, the peptide text is derived from it. [ ]: non-standard residue; d: D form. The star is where a group is joined. Malonyl(2,2-Me2,histaminyl) = CC(C)(C(=O)NCCc1cnc[nH]1)C(=O)*; hArg(Et2) = CCN=C(NCC)NCCCC[C@H](N)C(=O)O; d(hArg) = N=C(N)NCCCC[C@@H](N)C(=O)O; Gly(NCH2CH2Ph) = O=C(O)CNCCc1ccccc1; Hyp = O=C(O)[C@@H]1C[C@@H](O)CN1; hArg = N=C(N)NCCCC[C@H](N)C(=O)O; NMeN = CN[C@@H](CC(N)=O)C(=O)O; Aoc(2) = CCCCCC[C@H](N)C(=O)O; Phg = N[C@H](C(=O)O)c1ccccc1; Nle = CCCC[C@H](N)C(=O)O

Assays:
[1] = target: T1, human orexin type 1 receptor (hOX1R) (Homo sapiens, UniProt O43613); assay: Measurement of orexin type 1 receptor agonist activity (CHO cells, FLIPR TETRA intracellular Ca2+); format: cell-based
T1 construct: expressed in transfected cells
T1 sequence (O43613 1-425): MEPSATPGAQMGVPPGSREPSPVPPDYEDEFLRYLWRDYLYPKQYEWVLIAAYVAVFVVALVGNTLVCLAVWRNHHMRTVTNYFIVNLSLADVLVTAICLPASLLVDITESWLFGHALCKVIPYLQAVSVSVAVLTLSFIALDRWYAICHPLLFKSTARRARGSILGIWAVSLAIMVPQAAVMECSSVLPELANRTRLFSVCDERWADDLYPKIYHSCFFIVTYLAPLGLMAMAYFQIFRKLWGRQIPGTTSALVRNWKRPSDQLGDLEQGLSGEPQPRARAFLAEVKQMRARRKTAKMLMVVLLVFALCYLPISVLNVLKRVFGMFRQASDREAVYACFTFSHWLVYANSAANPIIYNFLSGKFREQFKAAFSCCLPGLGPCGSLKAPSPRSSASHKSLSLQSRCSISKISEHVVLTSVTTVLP
From the text: (§1) In some embodiments, the assay uses cells stably expressing either human orexin type 2 or human orexin type 1 receptor. In some embodiments, the cells are obtained by inserting the Orexin receptor cDNA into pcDNA3.1(+) plasmid vector, identifying clones by G418 drug resistance selection, and/or growing a single clone for OX2R-CHO and OX1R-CHO in bulk. In some embodiments, the assay is detected using Fluorescent Imaging Plate Reader TETRA (FLIPR TETRA: manufactured by Molecular Devices). In some embodiments, the agonist activity of the test peptide is calculated assuming that the fluorescence value of the well containing only the dilution buffer is 0% and the fluorescence value of the well containing 10 nM human orexin A (Tocris) buffer is 100%.
(§2) Stable cell line generation. Obtainment of cells stably expressing either human orexin type 2 or human orexin type 1 receptor: to obtain a stable cell line the Orexin receptor cDNA was inserted into pcDNA3.1(+) plasmid vector and clones identified by G418 drug resistance selection. […] A single clone for OX2R-CHO and OX1R-CHO were grown in bulk and frozen to generate a cell bank for routine screening.
(§3) Measurement of orexin type 1 receptor agonist activity. Chinese hamster ovary (CHO) cells expressing human orexin type 1 receptor (hOX1R) were seeded in each well of 384 well black clear bottom plates (BD Flacon) at 10,000 cells per well and cultured for 24 h in an Ham's F12 (Gibco) medium containing 10% fetal calf serum (Sigma Aldrich) under the conditions of 37° C., 5% CO2. After removal of the medium, 50 μL of assay buffer 1 (0.1% bovine serum albumin (Sigma Aldrich), 20 mM HEPES (Molecular Dimensions), […] probenecid (Sigma Aldrich), 1× Calcium 5 dye (Molecular Devices) in Hank's balanced salt solution (Invitrogen)) was added, and the cells were incubated for 60 min under the conditions of 37° C., 5% CO2. A test peptide was dissolved in dimethyl sulfoxide (Sigma Aldrich) to 1 mM, and then diluted with assay buffer 2 (20 mM HEPES, Hank's balanced salt solution, 0.1% bovine serum albumin). For the reaction, a test peptide solution (10 μl) was added using Fluorescent Imaging Plate Reader TETRA (FLIPR TETRA: manufactured by Molecular Devices), a fluorescence value (excitation wavelength 488 nm, measurement wavelength 570 nm) of each well was measured every one second for 2 min, and the agonist activity was determined using the area of the fluorescence value as an indicator of intracellular Ca^2+ concentration. The agonist activity of the test peptide was calculated assuming that the fluorescence value of the well added with only the dilution buffer was 0% and the fluorescence value of the well added with 10 nM human orexin A (Tocris) buffer was 100%. As used herein, Emax indicates the value at 1 μM concentration when orexin A is converted to a full agonist (maximum value of agonist activity: 100%).

[2] = target: T2, human orexin type 2 receptor (hOX2R) (Homo sapiens, UniProt O43614); assay: Measurement of orexin type 2 receptor agonist activity (CHO cells, FLIPR TETRA intracellular Ca2+); format: cell-based
T2 construct: expressed in transfected cells
T2 sequence (O43614 1-444): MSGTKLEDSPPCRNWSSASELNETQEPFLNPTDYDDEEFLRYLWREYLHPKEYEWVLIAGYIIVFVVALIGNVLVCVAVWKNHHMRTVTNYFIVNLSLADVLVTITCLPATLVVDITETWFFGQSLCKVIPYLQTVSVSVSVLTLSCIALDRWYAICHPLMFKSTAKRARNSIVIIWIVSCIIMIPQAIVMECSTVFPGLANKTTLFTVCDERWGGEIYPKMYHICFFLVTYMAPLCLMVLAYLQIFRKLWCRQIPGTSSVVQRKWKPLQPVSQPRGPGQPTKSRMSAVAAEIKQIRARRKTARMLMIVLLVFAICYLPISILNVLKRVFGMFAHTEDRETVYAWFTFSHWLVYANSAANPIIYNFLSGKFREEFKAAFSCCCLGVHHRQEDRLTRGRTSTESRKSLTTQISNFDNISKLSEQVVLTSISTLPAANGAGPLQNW
From the text: as §1, §2
as §3, with “type 2” for “type 1”, “receptor (hOX2R)” for “receptor (hOX1R) were”

[3] = 13 amino acid sequences, Example 4, read-out: OX1 pEC50 (converted)
[4] = 13 amino acid sequences, Example 4, read-out: OX2 pEC50 (converted)

| EC50 [1, 3] [nM] | EC50 [2, 4] [nM] | Compound | EC50 [1] [nM] | EC50 [2] [nM] |
| --- | --- | --- | --- | --- |
| > 316 | > 1.58 | CCCC[C@H](NC(=O)[C@@H](NC(=O)[C@H](CC(C)C)NC(=O)[C@@H](NC(=O)CNC(=O)[C@H](C)NC(=O)[C@H](C)NC(=O)[C@H](Cc1c[nH]cn1)NC(=O)[C@H](CC(N)=O)NC(=O)CNC(=O)[C@H](CO)NC(=O)[C@H](C)NC(=O)[C@H](Cc1c[nH]c2ccccc12)NC(=O)C(C)(C)C(=O)NCCc1cnc[nH]1)[C@@H](C)CC)[C@@H](C)O)C(N)=O [SEQ ID NO:7, CAP-TRP-ALA-SER-GLY-ASN-HIS-ALA-ALA-GLY-ILE-LEU-THR-NLE-NH2] ({Malonyl(2,2-Me2,histaminyl)}-WASGNHAAGILT[Nle]-NH2) | – | – |
| > 316 | > 1.58 | CCCC[C@H](NC(=O)[C@@H](NC(=O)[C@H](CC(C)C)NC(=O)[C@@H](NC(=O)CNC(=O)[C@@H](NC(=O)[C@H](C)NC(=O)[C@H](Cc1c[nH]cn1)NC(=O)[C@H](CC(N)=O)NC(=O)CNC(=O)[C@H](CO)NC(=O)[C@H](CCCNC(=N)N)NC(=O)[C@@H](N)Cc1c[nH]c2ccccc12)c1ccccc1)[C@@H](C)CC)[C@@H](C)O)C(N)=O [SEQ ID NO:8, TRP-ARG-SER-GLY-ASN-HIS-ALA-Phg-GLY-ILE-LEU-THR-NLE-NH2] (H-WRSGNHA[Phg]GILT[Nle]-NH2) | – | – |
| – | – | CCCCCC[C@H](NC(=O)[C@@H](NC(=O)[C@H](CC(C)C)NC(=O)[C@@H](NC(=O)CNC(=O)[C@@H](NC(=O)[C@H](C)NC(=O)[C@H](Cc1c[nH]cn1)NC(=O)[C@H](CC(N)=O)NC(=O)CN(CCc1ccccc1)C(=O)[C@H](CCCCNC(=NCC)NCC)NC(=O)[C@@H]1CCCN1C(=O)[C@H](CCCCNC(=N)N)NC(=O)[C@H](CCC(N)=O)NC(=O)C(C)(C)C(=O)NCCc1cnc[nH]1)c1ccccc1)[C@@H](C)CC)[C@@H](C)O)C(N)=O [compound 1] ({Malonyl(2,2-Me2,histaminyl)}-Q[hArg]P[hArg(Et2)][Gly(NCH2CH2Ph)]NHA[Phg]GILT[Aoc(2)]-NH2) | > 10 | < 0.1 |
| – | – | CCCCCC[C@H](NC(=O)[C@@H](NC(=O)[C@H](CC(C)C)NC(=O)[C@@H](NC(=O)CNC(=O)[C@@H](NC(=O)[C@H](C)NC(=O)[C@H](Cc1c[nH]cn1)NC(=O)[C@H](CC(N)=O)NC(=O)CN(CCc1ccccc1)C(=O)[C@H](CCCNC(=N)N)NC(=O)[C@@H]1CCCN1C(=O)[C@H](CCCCNC(=N)N)NC(=O)[C@H](CCC(N)=O)NC(=O)C(C)(C)C(=O)NCCc1cnc[nH]1)c1ccccc1)[C@@H](C)CC)[C@@H](C)O)C(N)=O [compound 2] ({Malonyl(2,2-Me2,histaminyl)}-Q[hArg]PR[Gly(NCH2CH2Ph)]NHA[Phg]GILT[Aoc(2)]-NH2) | > 10 | < 0.1 |
| – | – | CCCCCC[C@H](NC(=O)[C@@H](NC(=O)[C@H](CC(C)C)NC(=O)[C@@H](NC(=O)CNC(=O)[C@@H](NC(=O)[C@H](C)NC(=O)[C@@H]1C[C@@H](O)CN1C(=O)[C@H](CC(N)=O)N(C)C(=O)CN(CCc1ccccc1)C(=O)[C@H](CCCNC(=N)N)NC(=O)[C@@H]1CCCN1C(=O)[C@H](CCCCNC(=N)N)NC(=O)[C@H](CCC(N)=O)NC(=O)C(C)(C)C(=O)NCCc1cnc[nH]1)c1ccccc1)[C@@H](C)CC)[C@@H](C)O)C(N)=O [compound 3] ({Malonyl(2,2-Me2,histaminyl)}-Q[hArg]PR[Gly(NCH2CH2Ph)][NMeN][Hyp]A[Phg]GILT[Aoc(2)]-NH2) | > 10 | < 0.1 |
| – | – | CCCCCC[C@H](NC(=O)[C@@H](NC(=O)[C@H](CC(C)C)NC(=O)[C@@H](NC(=O)CNC(=O)[C@@H](NC(=O)[C@H](C)NC(=O)[C@@H]1C[C@@H](O)CN1C(=O)[C@H](CC(N)=O)N(C)C(=O)CN(CCc1ccccc1)C(=O)[C@H](CCCNC(=N)N)NC(=O)[C@@H]1CCCN1C(=O)[C@H](CCCCNC(=N)N)NC(=O)[C@@H](CCC(N)=O)NC(=O)C(C)(C)C(=O)NCCc1cnc[nH]1)c1ccccc1)[C@@H](C)CC)[C@@H](C)O)C(N)=O [compound 4] ({Malonyl(2,2-Me2,histaminyl)}-[dQ][hArg]PR[Gly(NCH2CH2Ph)][NMeN][Hyp]A[Phg]GILT[Aoc(2)]-NH2) | > 10 | < 0.1 |
| – | – | CCCCCC[C@H](NC(=O)[C@@H](NC(=O)[C@H](CC(C)C)NC(=O)[C@@H](NC(=O)CNC(=O)[C@@H](NC(=O)[C@H](C)NC(=O)[C@@H]1C[C@@H](O)CN1C(=O)[C@H](CC(N)=O)N(C)C(=O)CN(CCc1ccccc1)C(=O)[C@H](CCCNC(=N)N)NC(=O)[C@@H]1CCCN1C(=O)[C@@H](CCCCNC(=N)N)NC(=O)[C@H](CCC(N)=O)NC(=O)C(C)(C)C(=O)NCCc1cnc[nH]1)c1ccccc1)[C@@H](C)CC)[C@@H](C)O)C(N)=O [compound 5] ({Malonyl(2,2-Me2,histaminyl)}-Q[d(hArg)]PR[Gly(NCH2CH2Ph)][NMeN][Hyp]A[Phg]GILT[Aoc(2)]-NH2) | > 10 | < 0.1 |
| – | – | CCCCCC[C@H](NC(=O)[C@@H](NC(=O)[C@H](CC(C)C)NC(=O)[C@@H](NC(=O)CNC(=O)[C@@H](NC(=O)[C@H](C)NC(=O)[C@@H]1C[C@@H](O)CN1C(=O)[C@H](CC(N)=O)N(C)C(=O)CN(CCc1ccccc1)C(=O)[C@H](CCCNC(=N)N)NC(=O)[C@H]1CCCN1C(=O)[C@H](CCCCNC(=N)N)NC(=O)[C@H](CCC(N)=O)NC(=O)C(C)(C)C(=O)NCCc1cnc[nH]1)c1ccccc1)[C@@H](C)CC)[C@@H](C)O)C(N)=O [compound 6] ({Malonyl(2,2-Me2,histaminyl)}-Q[hArg][dP]R[Gly(NCH2CH2Ph)][NMeN][Hyp]A[Phg]GILT[Aoc(2)]-NH2) | > 10 | < 0.1 |
